Results reported in ChEMBL document CHEMBL1130995, “Anti-AIDS agents. 32. Synthesis and anti-HIV activity of betulin derivatives” (Bioorg Med Chem Lett, 1998).

Tests used:
H9 [1] = assay: Compound was evaluated for cytotoxicity in H9 lymphocytes; format: functional, cell-based; conditions: Homo sapiens
H9 [2] = assay: Compound was evaluated for anti-HIV activity in H9 lymphocytes; format: functional, cell-based; conditions: Homo sapiens

SMILES	IC50 (H9 [1]) [µM]	EC50 (H9 [2]) [µM]
C=C(C)[C@@H]1CC[C@]2(COC(=O)CC(C)(C)CC(=O)O)CC[C@]3(C)[C@H](CC[C@@H]4[C@@]5(C)CCC(=O)C(C)(C)[C@@H]5CC[C@]43C)[C@@H]12	29.2	10
CC(C)[C@@H]1CC[C@]2(COC(=O)CC(C)(C)CC(=O)O)CC[C@]3(C)[C@H](CC[C@@H]4[C@@]5(C)CC[C@H](OC(=O)CC(C)(C)CC(=O)O)C(C)(C)[C@@H]5CC[C@]43C)[C@@H]12	10.6	0.0047
C=C(C)[C@@H]1CC[C@]2(COC(=O)CC3(CC(=O)O)CCCC3)CC[C@]3(C)[C@H](CC[C@@H]4[C@@]5(C)CC[C@H](OC(=O)CC6(CC(=O)O)CCCC6)C(C)(C)[C@@H]5CC[C@]43C)[C@@H]12	20.5	0.077
CCC(C)(CC(=O)O)CC(=O)OC[C@]12CC[C@@H](C(C)C)[C@@H]1[C@H]1CC[C@@H]3[C@@]4(C)CC[C@H](OC(=O)CC(C)(CC)CC(=O)O)C(C)(C)[C@@H]4CC[C@@]3(C)[C@]1(C)CC2 (some centres undefined)	18.7	0.075
C=C(C)[C@@H]1CC[C@]2(COC(=O)CC(C)(C)CC(=O)O)CC[C@]3(C)[C@H](CC[C@@H]4[C@@]5(C)CC=CC(C)(C)[C@@H]5CC[C@]43C)[C@@H]12	28.3	5.4
C=C(C)[C@@H]1CC[C@]2(COC(=O)CC(C)(C)CC(=O)O)CC[C@]3(C)[C@H](CC[C@@H]4[C@@]5(C)CC[C@H](O)C(C)(C)[C@@H]5CC[C@]43C)[C@@H]12	28.2	3.6
C=C(C)[C@@H]1CC[C@]2(C(=O)O)CC[C@]3(C)[C@H](CC[C@@H]4[C@@]5(C)CC[C@H](OC(=O)CC(C)(C)CC(=O)O)C(C)(C)[C@@H]5CC[C@]43C)[C@@H]12	–	0.0023
C=C(C)[C@@H]1CC[C@]2(COC(=O)CC(C)(CC)CC(=O)O)CC[C@]3(C)[C@H](CC[C@@H]4[C@@]5(C)CC[C@H](OC(=O)CC(C)(CC)CC(=O)O)C(C)(C)[C@@H]5CC[C@]43C)[C@@H]12 (some centres undefined)	18.4	0.0053
C=C(C)[C@@H]1CC[C@]2(CO)CC[C@]3(C)[C@H](CC[C@@H]4[C@@]5(C)CC=CC(C)(C)[C@@H]5CC[C@]43C)[C@@H]12	31.9	11.9
C=C(C)[C@@H]1CC[C@]2(COC(=O)CC(C)(C)CC(=O)O)CC[C@]3(C)[C@H](CC[C@@H]4[C@@]5(C)CC[C@H](OC(=O)CC(C)(C)CC(=O)O)C(C)(C)[C@@H]5CC[C@]43C)[C@@H]12	14.2	0.00066
CC(C)[C@@H]1CC[C@]2(COC(=O)CC3(CC(=O)O)CCCC3)CC[C@]3(C)[C@H](CC[C@@H]4[C@@]5(C)CC[C@H](OC(=O)CC6(CC(=O)O)CCCC6)C(C)(C)[C@@H]5CC[C@]43C)[C@@H]12	21.6	0.58
C=C(C)[C@@H]1CC[C@]2(CO)CC[C@]3(C)[C@H](CC[C@@H]4[C@@]5(C)CC[C@H](O)C(C)(C)[C@@H]5CC[C@]43C)[C@@H]12 [BETULIN]	43.7	23
Cc1cn([C@H]2C[C@H](N=[N+]=[N-])[C@@H](CO)O2)c(=O)[nH]c1=O [ZIDOVUDINE]	–	0.015
